Assay [1] deals with BEAS-2B cells. Kind of assay: TNFα-stimulated BEAS-2B IL-8 release assay. The class given is cell-based. As to conditions: Homo sapiens, IC50 classes, TNF-α 10 ng/ml, 18 h, read-out: TNFα-stimulated BEAS-2B IL-8 release inhibition. The essentials:
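BEAS-2B cells at 80-90% confluence were pre-incubated 1 h with p38 inhibitors, then stimulated 18 h at 37 °C with TNF-α (10 ng/ml). Supernatant IL-8 was measured by ELISA. IC50 was taken from sigmoidal variable-slope fits of % inhibition of control release.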

Assay [2] concerns Peripheral Blood Mononuclear Cells (PBMCs). In words: LPS-stimulated PBMC TNFα release assay. It counts as cell-based. Conditions: IC50 classes; human PBMC, LPS 10 ng/ml, 18 h; read-out: LPS-stimulated PBMC TNFα release inhibition. The essentials: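 Human PBMCs from healthy donors, adhered 3 h in serum-free RPMI, received compound for 1 h in 1% FBS medium before 10 ng/ml LPS for 18 h. Supernatant TNFα was measured by MSD; IC50 from percentage inhibition of control release, at least three separate experiments.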

Assay [3] deals with T1, p38alpha (Homo sapiens, UniProt Q16539).
T1 construct: purchased Invitrogen PV3304
T1 sequence (Q16539 whole entry): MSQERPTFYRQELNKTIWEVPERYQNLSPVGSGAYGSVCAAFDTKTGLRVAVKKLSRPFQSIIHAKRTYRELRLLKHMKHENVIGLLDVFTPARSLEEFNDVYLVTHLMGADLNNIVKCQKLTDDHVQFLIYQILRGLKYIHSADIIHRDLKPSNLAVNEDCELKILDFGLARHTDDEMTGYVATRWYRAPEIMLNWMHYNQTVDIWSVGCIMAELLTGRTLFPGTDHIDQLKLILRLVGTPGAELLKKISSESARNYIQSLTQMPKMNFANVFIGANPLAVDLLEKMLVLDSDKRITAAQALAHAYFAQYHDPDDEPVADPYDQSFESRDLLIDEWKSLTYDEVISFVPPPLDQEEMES
Kind of assay: P38alpha enzyme inhibition assay (Alphascreen kinase activity assay). The class given is biochemical. Conditions: IC50 classes; 2 hours preincubation at 25° C., 250 μM ATP; read-out: p38α inhibition. The essentials: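 p38alpha with 0.3 μg/ml ATF-2 fusion protein in HEPES pH 7.5 buffer (10 mM MgCl2, 2 mM DTT, 1% DMSO); compounds preincubated 2 h at 25° C, then 250 μM ATP added for 1 h at 25° C. Phospho-ATF2 detected by AlphaScreen luminescence with anti-phospho-ATF2 antibody; IC50 from concentration-response curves.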
For orientation: In Alpha technology, singlet oxygen from a donor bead excites a nearby acceptor bead.

Where a name gives a salt, the structure may show the parent alone.

In the case of `CNS(=O)(=O)c1cc(NC(=O)N[C@H]2CC[C@@H](Oc3ccc4nnc([C@]5(C)CCCN5C)n4c3)c3ccccc32)cc(C(C)(C)C)c1` [Example 39, 3-tert-Butyl-5-(3-{(1S,4R)-4-[3-((S)-1,2-dimethyl-pyrrolidin-2-yl)-[1,2,4]triazolo[4,3-a]pyridin-6-yloxy]-1,2,3,4-tetrahydro-naphthalen-1-yl}-ureido)-N-methyl-benzenesulfonamide], the results for the IC50 in assay [1], in assay [2] and in assay [3] were below 0.3 nM, below 1 nM and below 1 nM, respectively.

In the case of `COc1c(CO)cc(C(C)(C)C)cc1NC(=O)N[C@H]1CC[C@@H](Oc2ccc3nnc([C@@H]4CCCN4C(C)C)n3c2)c2ccccc21` [Example 6, 1-(5-tert-Butyl-3-hydroxymethyl-2-methoxy-phenyl)-3-{(1S,4R)-4-[3-((S)-1-isopropyl-pyrrolidin-2-yl)-[1,2,4]triazolo[4,3-a]pyridin-6-yloxy]-1,2,3,4-tetrahydro-naphthalen-1-yl}-urea], the IC50 in assay [1] is below 0.3 nM; in assay [2], below 1 nM; in assay [3], 1 to 10 nM.

As for `C[C@H]1CCCCN1c1nnc2ccc(O[C@@H]3CC[C@H](NC(=O)Nc4cc(CN(CCO)CCO)cc(C(C)(C)C)c4)c4ccccc43)cn12` [Example 76, 1-(3-{[Bis-(2-hydroxy-ethyl)-amino]-methyl}-5-tert-butyl-phenyl)-3-{(1S,4R)-4-[3-((S)-2-methyl-piperidin-1-yl)-[1,2,4]triazolo[4,3-a]pyridin-6-yloxy]-1,2,3,4-tetrahydro-naphthalen-1-yl}-urea], the IC50 in assay [1] is above 1 nM; in assay [2], 1 to 5 nM; in assay [3], below 1 nM.

`COc1ccc(C(C)(C)C)cc1NC(=O)N[C@H]1CC[C@@H](Oc2ccc3nnc([C@@H]4CCCN4C)n3c2)c2ccccc21` [Example 1, hydrochloride salt]: the IC50 was below 0.3 nM in assay [1], below 1 nM in assay [2] and below 1 nM in assay [3].

Turning to `CC(=O)OCc1cc(NC(=O)N[C@H]2CC[C@@H](Oc3ccc4nnc([C@@H]5CCCN5C)n4c3)c3ccccc32)cc(C(C)(C)C)c1` [Example 43, Acetic acid 3-tert-butyl-5-(3-{(1S,4R)-4-[3-((S)-1-methyl-pyrrolidin-2-yl)-[1,2,4]triazolo[4,3-a]pyridin-6-yloxy]-1,2,3,4-tetrahydro-naphthalen-1-yl}-ureido)-benzyl ester], the figures for the IC50 in assay [1], in assay [2] and in assay [3] were below 0.3 nM, 1 to 5 nM and below 1 nM, respectively.

Take `CN1CCC[C@@]1(C)c1nnc2ccc(O[C@@H]3CC[C@H](NC(=O)Nc4cc(CS(C)(=O)=O)cc(C(C)(C)C)c4)c4ccccc43)cn12` [Example 42, 1-(3-tert-Butyl-5-methanesulfonylmethyl-phenyl)-3-{(1S,4R)-4-[3-((S)-1,2-dimethyl-pyrrolidin-2-yl)-[1,2,4]triazolo[4,3-a]pyridin-6-yloxy]-1,2,3,4-tetrahydro-naphthalen-1-yl}-urea]: the IC50 in assay [1] was below 0.3 nM; in assay [2], below 1 nM; in assay [3], below 1 nM.

As for `CN1CCC[C@@]1(C)c1nnc2ccc(O[C@@H]3CC[C@H](NC(=O)Nc4cc(N)cc(C(C)(C)C)c4)c4ccccc43)cn12` [Example 35], the IC50 was below 0.3 nM in assay [1], 1 to 5 nM in assay [2] and below 1 nM in assay [3].

On to `CN1CC[C@H]1c1nnc2ccc(O[C@@H]3CC[C@H](NC(=O)Nc4cc(NS(C)(=O)=O)cc(C(C)(C)C)c4)c4ccccc43)cn12` [Example 63, N-[3-tert-Butyl-5-(3-{(1S,4R)-4-[3-((S)-1-methyl-azetidin-2-yl)-[1,2,4]triazolo[4,3-a]pyridin-6-yloxy]-1,2,3,4-tetrahydro-naphthalen-1-yl}-ureido)-phenyl]-methanesulfonamide], for which the figures for the IC50 in assay [1], in assay [2] and in assay [3] were above 1 nM, above 5 nM and 1 to 10 nM, respectively.

For `CN(C)Cc1cc(NC(=O)N[C@H]2CC[C@@H](Oc3ccc4nnc([C@]5(C)CCCN5C)n4c3)c3ccccc32)cc(C(C)(C)C)c1` [Example 65, 1-(3-tert-Butyl-5-dimethylaminomethyl-phenyl)-3-{(1S,4R)-4-[3-((S)-1,2-dimethyl-pyrrolidin-2-yl)-[1,2,4]triazolo[4,3-a]pyridin-6-yloxy]-1,2,3,4-tetrahydro-naphthalen-1-yl}-urea], the IC50 in assay [1] was 0.3 to 1 nM; in assay [2] it was 1 to 5 nM; in assay [3], below 1 nM.

As for `CN1CCC[C@H]1c1nnc2ccc(O[C@@H]3CC[C@H](NC(=O)Nc4cc(N5CCOCC5)cc(C(C)(C)C)c4)c4ccccc43)cn12` [Example 58, 1-(3-tert-Butyl-5-morpholin-4-yl-phenyl)-3-{(1S,4R)-4-[3-((S)-1-methyl-pyrrolidin-2-yl)-[1,2,4]triazolo[4,3-a]pyridin-6-yloxy]-1,2,3,4-tetrahydro-naphthalen-1-yl}-urea], the IC50 is 0.3 to 1 nM in assay [1], above 5 nM in assay [2] and 1 to 10 nM in assay [3].

With `CN1CCN(C(C)(C)c2nnc3ccc(O[C@@H]4CC[C@H](NC(=O)Nc5cc(NS(C)(=O)=O)cc(C(C)(C)C)c5)c5ccccc54)cn23)CC1` [Example 62, N-{3-tert-Butyl-5-[3-((1S,4R)-4-{3-[1-methyl-1-(4-methyl-piperazin-1-yl)-ethyl]-[1,2,4]triazolo[4,3-a]pyridin-6-yloxy}-1,2,3,4-tetrahydro-naphthalen-1-yl)-ureido]-phenyl}-methanesulfonamide], the IC50 in assay [1] was above 1 nM; in assay [2] it was above 5 nM; in assay [3] it was below 1 nM.

With `CN1CCC[C@@]1(C)c1nnc2ccc(O[C@@H]3CC[C@H](NC(=O)Nc4cc(CNS(C)(=O)=O)cc(C(C)(C)C)c4)c4ccccc43)cn12` [Example 45, N-[3-tert-Butyl-5-(3-{(1S,4R)-4-[3-((S)-1,2-dimethyl-pyrrolidin-2-yl)-[1,2,4]triazolo[4,3-a]pyridin-6-yloxy]-1,2,3,4-tetrahydro-naphthalen-1-yl}-ureido)-benzyl]-methanesulfonamide], the IC50 was below 0.3 nM in assay [1], below 1 nM in assay [2] and below 1 nM in assay [3].

Turning to `CN1CCC[C@@]1(C)c1nnc2ccc(O[C@@H]3CC[C@H](NC(=O)Nc4cc(C(C)(C)C)ccc4CO)c4ccccc43)cn12` [Example 59, 1-(5-tert-Butyl-2-hydroxymethyl-phenyl)-3-{(1S,4R)-4-[3-((S)-1,2-dimethyl-pyrrolidin-2-yl)-[1,2,4]triazolo[4,3-a]pyridin-6-yloxy]-1,2,3,4-tetrahydro-naphthalen-1-yl}-urea], the IC50 is below 0.3 nM in assay [1], below 1 nM in assay [2] and below 1 nM in assay [3].

In the case of `Cc1c(NC(=O)N[C@H]2CC[C@@H](Oc3ccc4nnc([C@]5(C)CCCN5C)n4c3)c3ccccc32)cc(C(C)(C)C)cc1NS(C)(=O)=O` [Example 56, N-[5-tert-Butyl-3-(3-{(1S,4R)-4-[3-((S)-1,2-dimethyl-pyrrolidin-2-yl)-[1,2,4]triazolo[4,3-a]pyridin-6-yloxy]-1,2,3,4-tetrahydro-naphthalen-1-yl}-ureido)-2-methyl-phenyl]-methanesulfonamide], the IC50 in assay [1] was below 0.3 nM; in assay [2], below 1 nM; in assay [3], below 1 nM.

Regarding `C[C@H]1CCCCN1c1nnc2ccc(O[C@@H]3CC[C@H](NC(=O)Nc4cc(CN(C)C)cc(C(C)(C)C)c4)c4ccccc43)cn12` [Example 66, 1-(3-tert-Butyl-5-dimethylaminomethyl-phenyl)-3-{(1S,4R)-4-[3-((S)-2-methyl-piperidin-1-yl)-[1,2,4]triazolo[4,3-a]pyridin-6-yloxy]-1,2,3,4-tetrahydro-naphthalen-1-yl}-urea], the IC50 in assay [1] was below 0.3 nM; in assay [2], 1 to 5 nM; in assay [3], below 1 nM.

Consider `CC(=O)OCc1cc(NC(=O)N[C@H]2CC[C@@H](Oc3ccc4nnc([C@]5(C)CCCN5C)n4c3)c3ccccc32)cc(C(C)(C)C)c1` [Example 44, Acetic acid 3-tert-butyl-5-(3-{(1S,4R)-4-[3-((S)-1,2-dimethyl-pyrrolidin-2-yl)-[1,2,4]triazolo[4,3-a]pyridin-6-yloxy]-1,2,3,4-tetrahydro-naphthalen-1-yl}-ureido)-benzyl ester], for which the IC50 in assay [1] is below 0.3 nM; in assay [2], below 1 nM; in assay [3], below 1 nM.

Consider `C[C@H]1CCCCN1c1nnc2ccc(O[C@@H]3CC[C@H](NC(=O)Nc4cc(COCCN(C)C)cc(C(C)(C)C)c4)c4ccccc43)cn12` [Example 70, 1-[3-tert-Butyl-5-(2-dimethylamino-ethoxymethyl)-phenyl]-3-{(1S,4R)-4-[3-((S)-2-methyl-piperidin-1-yl)-[1,2,4]triazolo[4,3-a]pyridin-6-yloxy]-1,2,3,4-tetrahydro-naphthalen-1-yl}-urea], for which the IC50 in assay [1] was 0.3 to 1 nM; in assay [2] it was above 5 nM; in assay [3], below 1 nM.

As to `C[C@H]1CCCCN1c1nnc2ccc(O[C@@H]3CC[C@H](NC(=O)Nc4cc(C(C)(C)C)ccc4CN4CCOCC4)c4ccccc43)cn12` [Example 74, 1-(5-tert-Butyl-2-morpholin-4-ylmethyl-phenyl)-3-{(1S,4R)-4-[3-((S)-2-methyl-piperidin-1-yl)-[1,2,4]triazolo[4,3-a]pyridin-6-yloxy]-1,2,3,4-tetrahydro-naphthalen-1-yl}-urea], the values for the IC50 in assay [1], in assay [2] and in assay [3] were 0.3 to 1 nM, above 5 nM and 1 to 10 nM, respectively.

(Values after US10100050B2 (CHIESI FARMACEUTICI S.P.A., priority 2015, dated 2018).)
